Measured values from publication doi:10.1101/2021.07.22.453354v1 (biorxiv, 2021).

Target: ΔNFun30 (printed ⊗NFun30), Fun30 from C. albicans, orf19.6291 (Candida albicans, UniProt A0A1D8PTJ0)
Assay: biochemical

Kd: 1320 ± 30 nM
Structure (SMILES): Nc1ncnc2c1ncn2[C@@H]1O[C@H](COP(=O)(O)OP(=O)(O)OP(=O)(O)O)[C@@H](O)[C@H]1O [ATP]
